Results as given in ChEMBL document CHEMBL1201862, “PubChem BioAssay data set” (2004).
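Assay format: 96-well plates, 48-hour exposure. Here, GI50 denotes the concentration required for 50% inhibition of growth.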 Calls of active or inactive are those of the source. Rule as the data show it: active = GI50 up to about 1.1 µM and inactive = higher.

Key:
Assay in all cases: NCI anticancer screen, dose series, 48 h
[1] = system: HT-29
[2] = system: OVCAR-5
[3] = system: UO-31
[4] = system: KM12
[5] = system: SNB-75
[6] = system: SK-MEL-5
[7] = system: Malme-3M
[8] = system: SF-539
[9] = system: HOP-62
[10] = system: UACC-62
[11] = system: NCI-H23
[12] = system: OVCAR-3
[13] = system: CAKI-1
[14] = system: MOLT-4
[15] = system: HCT-15
[16] = system: SK-OV-3
[17] = system: TK-10
[18] = system: SK-MEL-28

| Structure (SMILES) | GI50 [1] | GI50 [2] | GI50 [3] | GI50 [4] | GI50 [5] | GI50 [6] | GI50 [7] | GI50 [8] | GI50 [9] | GI50 [10] | GI50 [11] | GI50 [12] | GI50 [13] | GI50 [14] | GI50 [15] | GI50 [16] | GI50 [17] | GI50 [18] |
| --- | --- | --- | --- | --- | --- | --- | --- | --- | --- | --- | --- | --- | --- | --- | --- | --- | --- | --- |
| Nc1ncnc2c(C3OC(CO)C(O)C3O)n[nH]c12 (configuration not stated) | 0.0895 µM (active) | 0.59 µM (active) | 0.0551 µM (active) | 0.38 µM (active) | 0.196 µM (active) | 1.41 µM (inactive) | 0.432 µM (active) | 0.46 µM (active) | 0.0509 µM (active) | 1.4 µM (inactive) | 1.12 µM (inactive) |  |  |  |  |  |  |  |
| CCCCN(CCCC)C(=O)C(=O)C(C(=O)c1ccc(OC)cc1)c1ccc(OC)cc1 (configuration not stated) | > 100 µM (inactive) | > 100 µM (inactive) | > 100 µM (inactive) | > 100 µM (inactive) |  | 69 µM (inactive) | > 100 µM (inactive) | > 100 µM (inactive) | > 100 µM (inactive) | 56.4 µM (inactive) | > 100 µM (inactive) | > 100 µM (inactive) | > 100 µM (inactive) | > 100 µM (inactive) | > 100 µM | > 100 µM (inactive) | > 100 µM (inactive) | > 100 µM (inactive) |
| COc1ccc(Sc2ccccc2[N+](=O)[O-])cc1 | 4.62 µM (inactive) | > 100 µM (inactive) | 23.4 µM (inactive) | 6.44 µM (inactive) | 3.67 µM (inactive) | 45.9 µM (inactive) | 13 µM (inactive) | 26 µM (inactive) | 16.6 µM (inactive) | 7.87 µM (inactive) | 31.2 µM (inactive) | 12.4 µM (inactive) |  | 16.1 µM (inactive) | 5.86 µM | 39.1 µM (inactive) | 34.8 µM (inactive) | 5.28 µM (inactive) |
| COc1cccc2c1C(=O)c1c(O)c3c(c(O)c1C2=O)C[C@@](O)(C(=O)CO)CC3OC1CC(NCCCC(OC(C)=O)OC(C)=O)C(O)C(C)O1 (some centres not stated) | 0.000711 µM (active) | 0.00267 µM (active) | 0.00151 µM (active) | 0.00279 µM (active) | 0.0015 µM (active) |  | 0.00209 µM (active) | 0.00229 µM (active) | 0.00165 µM (active) | 0.000861 µM (active) | 0.00182 µM (active) | 0.0045 µM (active) | 0.00296 µM (active) | 0.00224 µM (active) | 0.00225 µM | 0.00501 µM (active) | 0.00641 µM (active) | 0.00259 µM (active) |
| CN1Cc2ccccc2C2(COc3ccccc3C2=O)C1 (configuration not stated) | 48 µM (inactive) | > 100 µM (inactive) | 57.4 µM (inactive) |  | > 100 µM (inactive) | 56.2 µM (inactive) | > 100 µM (inactive) | > 100 µM (inactive) | > 100 µM (inactive) | > 100 µM (inactive) | > 100 µM (inactive) | 77.8 µM (inactive) | > 100 µM (inactive) | 40.8 µM (inactive) | > 100 µM | > 100 µM (inactive) | > 100 µM (inactive) |  |
| CC(C)(C)C(=O)OCC1CCC(n2cnc3c(=O)[nH]c(N)nc32)O1 (configuration not stated) | > 100 µM (inactive) | > 100 µM (inactive) | > 100 µM (inactive) | > 100 µM (inactive) | 40 µM (inactive) | > 100 µM (inactive) | > 100 µM (inactive) | > 100 µM (inactive) | > 100 µM (inactive) | > 100 µM (inactive) | > 100 µM (inactive) | > 100 µM (inactive) | > 100 µM (inactive) |  | > 100 µM | > 100 µM (inactive) | > 100 µM (inactive) | > 100 µM (inactive) |
| O=C(CCC(=O)Nc1ccc(Cl)c(Cl)c1)CC(=O)c1ccc2ccccc2c1 | 93.8 µM (inactive) | > 100 µM (inactive) | > 100 µM (inactive) | 82 µM (inactive) | 26.3 µM (inactive) | > 100 µM (inactive) | > 100 µM (inactive) | > 100 µM (inactive) | > 100 µM (inactive) | 17.2 µM (inactive) | > 100 µM (inactive) | > 100 µM (inactive) | 83 µM (inactive) | 48.3 µM (inactive) | 39.8 µM |  | > 100 µM (inactive) | > 100 µM (inactive) |
| CC1=C(Cl)C=CP(=O)(Oc2ccccc2)C1 (configuration not stated) |  | > 100 µM (inactive) | 38.3 µM (inactive) | > 100 µM (inactive) |  | 55.6 µM (inactive) | 44.5 µM (inactive) |  | > 100 µM (inactive) | 43.2 µM (inactive) | 45.7 µM (inactive) | > 100 µM (inactive) | > 100 µM (inactive) | > 10 µM (inactive) | 74.3 µM |  |  | 26.4 µM (inactive) |
| O=C(CC(=O)N1N=C(c2ccccc2)C(/N=N/c2ccccc2Cl)C1=O)Nc1ccccc1Cl (configuration not stated) | 19.9 µM (inactive) | > 100 µM (inactive) | 57.9 µM (inactive) | 14.1 µM (inactive) | 21.1 µM (inactive) | 17.1 µM (inactive) |  | 29.9 µM (inactive) | 33 µM (inactive) | 37.7 µM (inactive) | 39.8 µM (inactive) | 28.1 µM (inactive) | 30.8 µM (inactive) | 28.6 µM (inactive) | 40.1 µM | 28.6 µM (inactive) | 15.4 µM (inactive) | 44.3 µM (inactive) |
